For assay [1], the system named is Panc-1 human pancreas tumors. Briefly: Panc-1 mouse xenograft tumor growth (Example 1). The assay is classed as in vivo. The settings on record: for tumor growth inhibition: Panc-1 xenograft in female nude mice, FK228 IV Q4Dx3, gemcitabine IP Q3Dx4, vs vehicle control. The procedure:
In this study, female nude mice were implanted subcutaneously (SC) by trocar with Panc-1 tumor fragments harvested from SC growing tumors in nude mice hosts. […] The day of treatment initiation was specified as Day 1. Vehicle control and FK228 were administered intravenously on a Q4Dx3 schedule (Days 1, 5, and 9). Gemcitabine was administered by an intraperitoneal injection on a Q3Dx4 schedule (Days 1, 4, 7, 10). Tumors were measured by Vernier calipers twice weekly.

Assay [2] relates to PANC-1 Human Pancreatic Tumor Xenograft. Briefly: PANC-1 xenograft tumor growth inhibition study (Example 3). The assay is classed as in vivo, mouse xenograft. The settings on record: for % TGI: PANC-1, Day 25; for activity according to NCI Standards / #PR/CR / FINAL TUMOR VOLUME (DAY 25) MEAN ± SEM / calculated TGI values (discussion) / % TR: PANC-1; for calculated TGI values (discussion): all evaluated doses and schedules. An excerpt:
(Madison, Wis.). […] Tumor measurements were converted to cubic millimeter tumor volume using the formula^(5): […] Final mean tumor volume ±SEM for each group was reported; animals experiencing partial or complete tumor regressions or animals experiencing technical or drug-related deaths were censored from these calculations. […] TGI values for each treatment group are reported at study completion; these calculations are based on the final study day. […] If partial tumor regression was reported in multiple animals within one group, a mean value was determined. Individual mice lacking palpable tumors were classified as undergoing complete regression (CR). Animals experiencing partial or complete tumor regressions were censored from TGI calculations. However, data from these animals was included in statistical analysis calculations. In addition, weight data from these animals was included in daily and final group calculations. Tumor Necrosis-Degree of tumor necrosis was rated at each tumor measurement using the following arbitrary index: [table]

In assay [3] the test system is acetylated histone 4. As to the kind of experiment: Immunoblot of acetylated histone 4 in PANC-1 xenograft tumors. In kind it is in vivo, human. To be noted: FK228 5 mg/kg Q4Dx3; gemcitabine 80 mg/kg Q3Dx4; tumors at study completion; vs controls. The procedure: Abstract: To examine activity and mechanism of FK228, antitumor efficacy was tested in PANC-1 pancreatic adenocarcinoma model representing transformed Ras, either as a single agent or in combination with gemcitabine. Following PANC-1 study completion, tumor and sera were obtained from: • the vehicle control; • FK228 dosed at 5 mg/kg once every four days for three treatments (Q4Dx3); • Gemcitabine at 80 mg/kg (Q3Dx4); and • the drug combination. Expression of c-Myc, acetylated histones 3 and 4, and p21^waf1 was compared between control and FK228 groups by immunoblotting and was quantified following actin normalization. Serum levels of putative tumor products b-FGF and MMP-2 were quantified by human-specific ELISA. […]
Tissue Biomarkers: Tumor levels of acetylated histone-4, histone-4, c-Myc, p21waf and β-actin were quantified by immunoblotting as described. […] The chemiluminescence signal was captured by autoradiography, quantified by densitometry and expressed as a ratio of actin in each sample lane. For each biomarker, means and standard errors were calculated in each treatment group. […]
Expression of c-Myc, acetylated histones 3 and 4, and p21^waf1 was compared between control and FK228 groups by immunoblotting and was quantified following actin normalization. Serum levels of putative tumor products b-FGF and MMP-2 were quantified by human-specific ELISA. […]
In general terms: In western blotting, separated proteins are transferred to a membrane and probed.

Where [4] appears, read: FK228 2.5 mg/kg IV Q4Dx3, 2.5 mg/kg.
The mark [5] stands for this setting: FK228 5 mg/kg IV Q4Dx3, 5 mg/kg.

Each structure is given as a SMILES string. Where “and” joins values, the source holds several entries; their conditions need not be identical. Identical values can stand only once.

In assay [1], `C/C=C1\NC(=O)[C@H]2CSSCC/C=C/[C@H](CC(=O)N[C@H](C(C)C)C(=O)N2)OC(=O)[C@H](C(C)C)NC1=O` [FK228, romidepsin] had a tumor growth inhibition of 26%. Besides, in assay [2] (FK228 2.5 mg/kg IV Q4Dx3), the “% TGI” value came to 26% and the “activity according to NCI Standards” value is “inactive”. Moreover, in assay [2] (FK228 5 mg/kg IV Q4Dx3), the “% TGI” value was 26% and the “activity according to NCI Standards” value is “inactive”. Also, in assay [2] (setting [4]), the “#PR/CR” value was 0/9 and 0/0; the “FINAL TUMOR VOLUME (DAY 25) MEAN ± SEM” value was determined as 1688±290 mm^3. Besides, in assay [2] (setting [5]), the “#PR/CR” value was 0/9 and 0/0; the “FINAL TUMOR VOLUME (DAY 25) MEAN ± SEM” value was 1690±290 mm^3 and 1690 ± 331 mm^3. Besides, in assay [2], the “calculated TGI values (discussion)” value is recorded as “less than 58%”. Further, the “single agent activity towards tumor model” value in assay [2] (ras-transformed PANC-1) was “some activity”. Besides, the “increase of acetylated histone 4” value in assay [3] is “over 2 fold”.
As to `Nc1ccn([C@@H]2O[C@H](CO)[C@@H](O)C2(F)F)c(=O)n1` [Gemcitabine, gemcitabine], in assay [1], the tumor growth inhibition was determined as 50%. Further, the “animals with tumor regression” value in assay [1] (Panc-1 xenograft, N=9 mice per group) was “no regression”. For the same molecule, in assay [2] (Gemcitabine 40 mg/kg IP Q3Dx4), the “% TGI” value is on record as 31%; the “#PR/CR” value was 1/9 and 1/0; the “% TR” value is 62%; the “FINAL TUMOR VOLUME (DAY 25) MEAN ± SEM” value was 1566±255 mm^3. Moreover, the “activity according to NCI Standards” value in assay [2] (Gemcitabine 40 mg/kg IP Q3Dx4) was “inactive”. In addition, in assay [2] (Gemcitabine 80 mg/kg IP Q3Dx4), the “% TGI” value is 51%; the “#PR/CR” value is 0/9 and 0/0; the “FINAL TUMOR VOLUME (DAY 25) MEAN ± SEM” value came out at 1172±234 mm^3; the “activity according to NCI Standards” value is “inactive”. In addition, in assay [2] (Gemcitabine 40 mg/kg IP Q3Dx4, listed as gemcitabine), the “% TR” value was 62%. Also, the “calculated TGI values (discussion)” value in assay [2] was “less than 58%”. In assay [3], the “increase of acetylated histone 4” value is on record as “on the control level”.

Values taken from patent US20100137239A1, “GEMCITABINE COMBINATION THERAPY” (GLOUCESTER PHARMACEUTICALS, priority 2006, published 2010).
